We go through 19 compounds from patent publication US9573956B2, “Compounds as dual inhibitors of phosphodiesterases and histone deacetylases” (FUNDACIÓN PARA LA INVESTIGACIÓN MÉDICA APLICADA, priority 2013, dated 2017).

pIC50: −log10 of the molar value. Where two headings read alike, the source gives them in different places.

Format in all cases: biochemical
The target in one experiment is T1, PDE5A (Homo sapiens, UniProt O76074).
T1 construct: they are full-length with N-terminal GST tag; GST (N); purchased BPS Biosciences 60050; host or cells: baculovirus infected Sf9 cells
Description: PDE enzyme activity assay (HTRF cGMP), PDE5A. Background: TR-FRET usually uses a lanthanide donor and a delayed reading to cut background.

In a further experiment the target is HDAC1 (Homo sapiens, UniProt Q13547). Description: HDAC enzyme activity assay (fluorogenic substrate), HDAC1.
Sequence of HDAC1 (Q13547 whole entry): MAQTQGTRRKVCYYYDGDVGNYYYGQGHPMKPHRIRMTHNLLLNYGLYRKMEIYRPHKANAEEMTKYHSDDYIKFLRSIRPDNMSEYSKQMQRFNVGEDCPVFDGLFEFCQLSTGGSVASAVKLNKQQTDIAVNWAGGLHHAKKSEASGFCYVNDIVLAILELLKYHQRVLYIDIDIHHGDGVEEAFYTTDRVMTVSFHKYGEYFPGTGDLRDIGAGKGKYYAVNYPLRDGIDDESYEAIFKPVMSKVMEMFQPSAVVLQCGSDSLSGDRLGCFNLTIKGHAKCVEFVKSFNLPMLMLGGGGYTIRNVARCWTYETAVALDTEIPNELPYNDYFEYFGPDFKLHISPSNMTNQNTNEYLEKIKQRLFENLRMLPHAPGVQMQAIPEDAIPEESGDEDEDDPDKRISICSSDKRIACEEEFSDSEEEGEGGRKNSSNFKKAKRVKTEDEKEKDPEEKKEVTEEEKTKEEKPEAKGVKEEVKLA
The next experiment addresses T2, HDAC2 (Homo sapiens, UniProt Q92769).
T2 construct: NM_001527; Cat. #50002) is full-length with C-terminal his tag; His (C); purchased BPS Biosciences 50002; host or cells: baculovirus infected Sf9 cells
The experiment can be described thus: HDAC enzyme activity assay (fluorogenic substrate), HDAC2.

The target in a further experiment is T3, HDAC6 (Homo sapiens, UniProt Q9UBN7).
T3 construct: BC069243; Cat. #50006) is full-length with N-terminal GST tag; GST (N); purchased BPS Biosciences 50006; host or cells: baculovirus infected Sf9 cells
T3 sequence (Q9UBN7 1-1215): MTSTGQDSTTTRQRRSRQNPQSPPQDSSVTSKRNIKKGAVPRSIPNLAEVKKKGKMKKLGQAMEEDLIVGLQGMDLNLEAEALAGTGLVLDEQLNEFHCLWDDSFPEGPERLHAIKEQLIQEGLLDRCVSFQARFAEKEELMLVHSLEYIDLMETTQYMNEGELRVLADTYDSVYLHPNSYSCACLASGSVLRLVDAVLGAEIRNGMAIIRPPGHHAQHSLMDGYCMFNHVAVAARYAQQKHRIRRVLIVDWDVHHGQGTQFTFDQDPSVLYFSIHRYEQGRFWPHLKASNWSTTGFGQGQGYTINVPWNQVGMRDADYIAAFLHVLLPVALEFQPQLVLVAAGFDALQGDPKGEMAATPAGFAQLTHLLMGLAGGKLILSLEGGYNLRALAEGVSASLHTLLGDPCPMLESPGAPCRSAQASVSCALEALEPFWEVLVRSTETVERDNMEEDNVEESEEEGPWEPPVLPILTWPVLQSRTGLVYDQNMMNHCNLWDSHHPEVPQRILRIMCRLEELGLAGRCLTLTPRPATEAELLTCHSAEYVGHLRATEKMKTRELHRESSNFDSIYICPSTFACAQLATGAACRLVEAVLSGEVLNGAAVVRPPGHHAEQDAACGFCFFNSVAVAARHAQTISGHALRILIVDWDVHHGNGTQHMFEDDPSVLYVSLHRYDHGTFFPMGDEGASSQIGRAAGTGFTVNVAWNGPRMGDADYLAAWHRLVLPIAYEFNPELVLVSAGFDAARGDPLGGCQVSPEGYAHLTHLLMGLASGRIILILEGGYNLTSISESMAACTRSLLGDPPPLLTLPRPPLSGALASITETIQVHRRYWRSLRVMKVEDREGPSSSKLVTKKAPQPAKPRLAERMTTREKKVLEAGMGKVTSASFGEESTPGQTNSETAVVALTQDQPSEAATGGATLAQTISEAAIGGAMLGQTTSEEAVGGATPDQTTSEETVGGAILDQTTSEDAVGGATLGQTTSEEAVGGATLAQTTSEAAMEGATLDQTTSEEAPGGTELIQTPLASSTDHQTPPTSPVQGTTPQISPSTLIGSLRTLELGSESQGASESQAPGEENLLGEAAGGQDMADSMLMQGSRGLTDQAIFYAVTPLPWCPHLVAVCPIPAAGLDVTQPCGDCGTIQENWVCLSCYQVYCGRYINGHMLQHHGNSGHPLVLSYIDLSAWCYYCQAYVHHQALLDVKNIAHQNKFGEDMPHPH
Description: HDAC enzyme activity assay (fluorogenic substrate), HDAC6.

Setting [1] is: recombinant enzyme, read-out: PDE5A1 inhibition (IC50).
The mark [2] stands for this setting: recombinant enzyme, read-out: HDAC1 inhibition (IC50).
The mark [3] stands for this setting: recombinant enzyme, read-out: HDAC2 inhibition (IC50).
The mark [4] stands for this setting: recombinant enzyme, read-out: HDAC6 inhibition (IC50).
The mark [5] stands for this setting: comparative examples, inactive, read-out: HDAC1 IC50.
[6] abbreviates: comparative examples, inactive, read-out: HDAC2 IC50.
The mark [7] stands for this setting: comparative examples, inactive, read-out: HDAC6 IC50.

T2 sequence (Q92769 whole entry): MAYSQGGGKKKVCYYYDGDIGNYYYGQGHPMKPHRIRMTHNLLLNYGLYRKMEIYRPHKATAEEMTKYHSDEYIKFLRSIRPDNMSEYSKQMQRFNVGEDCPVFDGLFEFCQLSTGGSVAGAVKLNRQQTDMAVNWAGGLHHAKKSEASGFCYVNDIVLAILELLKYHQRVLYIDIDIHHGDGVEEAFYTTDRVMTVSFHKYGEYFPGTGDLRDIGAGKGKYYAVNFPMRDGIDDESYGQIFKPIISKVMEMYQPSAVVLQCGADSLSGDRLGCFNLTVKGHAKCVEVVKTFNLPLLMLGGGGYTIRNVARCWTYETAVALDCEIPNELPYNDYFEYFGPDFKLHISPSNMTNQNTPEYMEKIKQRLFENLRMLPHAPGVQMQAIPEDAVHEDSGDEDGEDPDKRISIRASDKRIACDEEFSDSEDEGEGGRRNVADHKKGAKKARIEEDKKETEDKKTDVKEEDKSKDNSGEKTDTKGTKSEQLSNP

As for `CCCc1nn(C)c2c(=O)[nH]c(-c3cc(CC4CCC(CC(=O)NO)CC4)ccc3OCC)nc12` (racemic) [Example 1-43], the pIC50 (commonly −log10 of the IC50, conventionally taken in molar units) on PDE5A (setting [1]) was 6.00 to 8.00; on HDAC1 (setting [2]), 5.00 to 6.00; at HDAC2 (setting [3]) it was under 5.00; at HDAC6 (setting [4]), 6.00 to 8.00.
Turning to `CCCc1nc(C)c2c(=O)[nH]c(-c3cc(S(=O)(=O)N(C)CC(=O)N(C)OC)ccc3OCC)nn12` [Comparative Example 2-01, 2-[[4-ethoxy-3-(5-methyl-4-oxo-7-propyl-3H-imidazo[5,1-f][1,2,4]triazin-2-yl)phenyl]sulfonyl-methyl-amino]-N-methoxy-N-methyl-acetamide, reference compound], the pIC50 on HDAC1 (setting [5]), on HDAC2 (setting [6]) and at HDAC6 (setting [7]) was under 4.70 in each case.
As for `CCCc1nc(C)c2c(=O)[nH]c(-c3cc(CC4CC(C(=O)N(C)OC)C4)ccc3OCC)nn12` (stereo not drawn) [Comparative Example 2-02, 3-[[4-ethoxy-3-(5-methyl-4-oxo-7-propyl-3H-imidazo[5,1-f][1,2,4]triazin-2-yl)phenyl]methyl]-N-methoxy-N-methylcyclobutanecarboxamide, reference compound], the pIC50 is over 8.00 on PDE5A (comparative example, read-out: PDE5A1 IC50); under 4.70 at HDAC1 (setting [5]); under 4.70 at HDAC2 (setting [6]); under 4.70 at HDAC6 (setting [7]).
As to `CCCc1nn(C)c2c(=O)[nH]c(-c3cc(S(=O)(=O)N4CCC(CCC(=O)NO)CC4)ccc3OCC)nc12` [Example 1-01], the pIC50 on PDE5A (setting [1]) was 6.00 to 8.00; at HDAC1 (setting [2]) it was under 5.00; at HDAC2 (setting [3]), under 5.00.
Turning to `CCCc1nn(C)c2c(=O)[nH]c(-c3cc(S(=O)(=O)N4CCN(Cc5ccc(/C=C/C(=O)NO)cc5)CC4)ccc3OCC)nc12` [Example 1-02], the pIC50 is over 8.00 at PDE5A (setting [1]), 6.00 to 8.00 on HDAC1 (setting [2]) and 5.00 to 6.00 at HDAC2 (setting [3]).
As for `CCCc1nn(C)c2c(=O)[nH]c(-c3cc(S(=O)(=O)N4CCN(CCC(=O)NO)CC4)ccc3OCC)nc12` [Example 1-04, 3-(4-[3-(6,7-Dihydro-1-methyl-7-oxo-3-propyl-1H-pyrazolo[4,3-d]pyrimidin-5-yl)-4-ethoxyphenylsulfonyl]piperazin-1-yl)-N-hydroxypropanamide], the figures for the pIC50 on PDE5A (setting [1]), on HDAC1 (setting [2]) and at HDAC2 (setting [3]) were over 8.00, 5.00 to 6.00 and under 5.00, respectively.
On the same counts, the results for `CCCc1nn(C)c2c(=O)[nH]c(-c3cc(S(=O)(=O)N4CCN(CCCC(=O)NO)CC4)ccc3OCC)nc12` [Example 1-05] are over 8.00, 5.00 to 6.00 and 5.00 to 6.00.
Regarding `CCCc1nn(C)c2c(=O)[nH]c(-c3cc(Nc4ccc(C(=O)NO)cc4)ccc3OCC)nc12` [Example 1-21, 4-[4-ethoxy-3-(1-methyl-7-oxo-3-propyl-6H-pyrazolo[4,3-d]pyrimidin-5-yl)anilino]benzenecarbohydroxamic acid], the pIC50 on PDE5A (setting [1]) is over 8.00; at HDAC1 (setting [2]), 6.00 to 8.00; at HDAC2 (setting [3]), under 5.00; at HDAC6 (setting [4]), 6.00 to 8.00.
With `CCCc1nn(C)c2c(=O)[nH]c(-c3cc(NCC4CCN(c5ncc(C(=O)NO)cn5)CC4)ccc3OCC)nc12` [Example 1-23], the pIC50 on PDE5A (setting [1]), at HDAC1 (setting [2]), on HDAC2 (setting [3]) and on HDAC6 (setting [4]) was 6.00 to 8.00 in each case.
`CCCc1nn(C)c2c(=O)[nH]c(-c3cc(C(=O)NO)ccc3OCC)nc12` [Example 1-27, 4-ethoxy-3-(1-methyl-7-oxo-3-propyl-6H-pyrazolo[4,3-d]pyrimidin-5-yl)benzenecarbohydroxamic acid]: the pIC50 at PDE5A (setting [1]) was over 8.00; on HDAC1 (setting [2]), 5.00 to 6.00; at HDAC2 (setting [3]), under 5.00; at HDAC6 (setting [4]), under 5.00.
`CCCc1nn(C)c2c(=O)[nH]c(-c3cc(CC4CCC(C(=O)NO)CC4)ccc3OCC)nc12` (stereo not drawn) [Example 1-28, 4-[[4-ethoxy-3-(1-methyl-7-oxo-3-propyl-6H-pyrazolo[4,3-d]pyrimidin-5-yl)phenyl]methyl]cyclohexanecarbohydroxamic acid]: the pIC50 at PDE5A (setting [1]) was 6.00 to 8.00; at HDAC1 (setting [2]), 6.00 to 8.00; on HDAC2 (setting [3]), under 5.00; at HDAC6 (setting [4]), 6.00 to 8.00.
On to `CCCc1nn(C)c2c(=O)[nH]c(-c3cc(CCC(=O)NO)ccc3OCC)nc12` [Example 1-31, 3-[4-ethoxy-3-(1-methyl-7-oxo-3-propyl-6H-pyrazolo[4,3-d]pyrimidin-5-yl)phenyl]propanehydroxamic acid], for which the pIC50 at PDE5A (setting [1]) was 6.00 to 8.00; at HDAC1 (setting [2]), 5.00 to 6.00; on HDAC2 (setting [3]), under 5.00; at HDAC6 (setting [4]), 5.00 to 6.00.
Take `CCCc1nn(C)c2c(=O)[nH]c(-c3cc(CC4CCN(CC(=O)NO)CC4)ccc3OCC)nc12` [Example 1-32]: the results for the negative logarithm of the IC50 (pIC50) at PDE5A (setting [1]), at HDAC2 (setting [3]) and on HDAC6 (setting [4]) were over 8.00, under 5.00 and 5.00 to 6.00, respectively.
As for `CCCc1nn(C)c2c(=O)[nH]c(-c3cc(NCCC(=O)NO)ccc3OCC)nc12` [Example 1-33, 3-[4-ethoxy-3-(1-methyl-7-oxo-3-propyl-6H-pyrazolo[4,3-d]pyrimidin-5-yl)anilino]propanehydroxamic acid], the pIC50 was 6.00 to 8.00 at PDE5A (setting [1]), 5.00 to 6.00 on HDAC1 (setting [2]), under 5.00 on HDAC2 (setting [3]) and under 5.00 on HDAC6 (setting [4]).
`CCCc1nn(C)c2c(=O)[nH]c(-c3cc(-c4ccc(CC(=O)NO)cc4)ccc3OCC)nc12` [Example 1-34]: the pIC50 at PDE5A (setting [1]) was 6.00 to 8.00; at HDAC1 (setting [2]) it was under 5.00; at HDAC2 (setting [3]), under 5.00; on HDAC6 (setting [4]), 6.00 to 8.00.
On to `CCCc1nn(C)c2c(=O)[nH]c(-c3cc(N4CCC(C(=O)NO)CC4)ccc3OCC)nc12` [Example 1-35, 1-[4-ethoxy-3-(1-methyl-7-oxo-3-propyl-6H-pyrazolo[4,3-d]pyrimidin-5-yl)phenyl]piperidine-4-carbohydroxamic acid], for which the pIC50 was 6.00 to 8.00 at PDE5A (setting [1]), 5.00 to 6.00 on HDAC1 (setting [2]), under 5.00 at HDAC2 (setting [3]) and 5.00 to 6.00 at HDAC6 (setting [4]).
As for `CCCc1nn(C)c2c(=O)[nH]c(-c3cc(CN4CCC(C(=O)NO)CC4)ccc3OCC)nc12` [Example 1-36, 1-[[4-ethoxy-3-(1-methyl-7-oxo-3-propyl-6H-pyrazolo[4,3-d]pyrimidin-5-yl)phenyl]methyl]piperidine-4-carbohydroxamic acid], the pIC50 on PDE5A (setting [1]) was 6.00 to 8.00; at HDAC1 (setting [2]) it was 5.00 to 6.00; on HDAC2 (setting [3]), under 5.00; on HDAC6 (setting [4]), 5.00 to 6.00.
For the compound `CCCc1nn(C)c2c(=O)[nH]c(-c3cc(Oc4ccc(C(=O)NO)cc4)ccc3OCC)nc12` [Example 1-37, 4-[4-ethoxy-3-(1-methyl-7-oxo-3-propyl-6H-pyrazolo[4,3-d]pyrimidin-5-yl)phenoxy]benzenecarbohydroxamic acid], the pIC50 on PDE5A (setting [1]) was 6.00 to 8.00; on HDAC1 (setting [2]) it was 6.00 to 8.00; on HDAC2 (setting [3]) it was 5.00 to 6.00; on HDAC6 (setting [4]), 6.00 to 8.00.
Consider “(1R,2R)-2-(1-(4,4-difluorocyclohexyl)-3a,4,5,7a-tetrahydro-4-oxo-1H-pyrazolo[3,4-d]pyrimidin-6-yl)-N-methoxy-N-methylcyclobutanecarboxamide [Comparative Example 3-01, reference compound]”, for which the pIC50 at HDAC1 (setting [5]), at HDAC2 (setting [6]) and at HDAC6 (setting [7]) was under 4.70 throughout.
